Data: patent US20140228349A1, “5,7-SUBSTITUTED-IMIDAZO[1,2-C]PYRIMIDINES” (Array BioPharma Inc., priority 2011, published 2014)

How the values were obtained:
Format in all cases: biochemical
JAK3 = target: T1, JAK3 (Homo sapiens, UniProt P52333); test: JAK3 Inhibition Assay (Omnia kinase fluorescence peptide substrate); details: averaged IC50 ranges; 10 μM (Km app) or 1 mM ATP, 2.5 nM JAK3
T1 construct: purchased Invitrogen Corporation, Carlsbad, Calif; IVGN PV4080
T1 sequence (P52333 1-1124): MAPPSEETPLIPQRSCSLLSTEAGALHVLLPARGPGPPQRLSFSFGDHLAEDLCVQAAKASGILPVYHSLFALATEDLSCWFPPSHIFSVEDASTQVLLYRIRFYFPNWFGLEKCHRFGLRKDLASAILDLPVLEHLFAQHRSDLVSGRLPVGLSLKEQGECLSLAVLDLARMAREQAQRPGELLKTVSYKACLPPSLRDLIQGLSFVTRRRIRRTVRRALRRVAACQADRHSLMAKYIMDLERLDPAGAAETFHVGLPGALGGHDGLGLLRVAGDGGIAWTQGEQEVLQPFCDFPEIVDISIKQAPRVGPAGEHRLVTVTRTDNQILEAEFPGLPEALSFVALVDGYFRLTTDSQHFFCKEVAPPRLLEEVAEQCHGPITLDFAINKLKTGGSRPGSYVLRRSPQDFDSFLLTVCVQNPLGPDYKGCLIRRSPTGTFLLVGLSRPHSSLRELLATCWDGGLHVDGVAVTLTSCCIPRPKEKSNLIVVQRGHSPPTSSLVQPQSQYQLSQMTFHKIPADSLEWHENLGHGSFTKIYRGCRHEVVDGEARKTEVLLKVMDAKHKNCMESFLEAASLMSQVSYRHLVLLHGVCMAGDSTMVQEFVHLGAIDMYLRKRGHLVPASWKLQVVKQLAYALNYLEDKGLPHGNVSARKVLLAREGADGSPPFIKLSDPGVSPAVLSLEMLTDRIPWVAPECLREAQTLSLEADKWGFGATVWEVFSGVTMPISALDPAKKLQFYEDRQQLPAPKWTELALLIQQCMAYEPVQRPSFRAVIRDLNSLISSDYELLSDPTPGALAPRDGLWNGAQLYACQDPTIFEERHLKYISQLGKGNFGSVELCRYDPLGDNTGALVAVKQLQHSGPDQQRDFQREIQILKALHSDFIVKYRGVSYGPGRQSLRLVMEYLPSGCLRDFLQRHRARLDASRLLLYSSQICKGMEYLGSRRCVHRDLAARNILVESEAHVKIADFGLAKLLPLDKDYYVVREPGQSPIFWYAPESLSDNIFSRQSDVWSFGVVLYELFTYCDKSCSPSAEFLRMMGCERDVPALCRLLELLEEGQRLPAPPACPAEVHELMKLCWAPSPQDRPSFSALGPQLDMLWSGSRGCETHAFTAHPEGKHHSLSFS
Procedure, shortened: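 IC50 is the concentration giving 50 percent of control on a 4-parameter logistic fit of 10-point, 3-fold dilutions from a 10 μM top dose, at 2% final DMSO. Kinetic Sox fluorescence (360/485 nm) was monitored every 50 s for 45 min. Mix: JAK3 2.5 nM, Omnia Y7 peptide 10 μM, ATP 10 μM (Km app) or 1 mM, in HEPES pH 7.4 buffer with MgCl2, Triton X-100 and DTT.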

JAK2 = target: T2, JAK2 (Homo sapiens, UniProt O60674); test: JAK2 Inhibition Assay (Omnia kinase fluorescence peptide substrate); details: averaged IC50 ranges; 25 μM (Km app) or 1 mM ATP, 5 nM JAK2
T2 construct: purchased Invitrogen Corporation, Carlsbad, Calif; IVGN PV4288
T2 sequence (O60674 whole entry): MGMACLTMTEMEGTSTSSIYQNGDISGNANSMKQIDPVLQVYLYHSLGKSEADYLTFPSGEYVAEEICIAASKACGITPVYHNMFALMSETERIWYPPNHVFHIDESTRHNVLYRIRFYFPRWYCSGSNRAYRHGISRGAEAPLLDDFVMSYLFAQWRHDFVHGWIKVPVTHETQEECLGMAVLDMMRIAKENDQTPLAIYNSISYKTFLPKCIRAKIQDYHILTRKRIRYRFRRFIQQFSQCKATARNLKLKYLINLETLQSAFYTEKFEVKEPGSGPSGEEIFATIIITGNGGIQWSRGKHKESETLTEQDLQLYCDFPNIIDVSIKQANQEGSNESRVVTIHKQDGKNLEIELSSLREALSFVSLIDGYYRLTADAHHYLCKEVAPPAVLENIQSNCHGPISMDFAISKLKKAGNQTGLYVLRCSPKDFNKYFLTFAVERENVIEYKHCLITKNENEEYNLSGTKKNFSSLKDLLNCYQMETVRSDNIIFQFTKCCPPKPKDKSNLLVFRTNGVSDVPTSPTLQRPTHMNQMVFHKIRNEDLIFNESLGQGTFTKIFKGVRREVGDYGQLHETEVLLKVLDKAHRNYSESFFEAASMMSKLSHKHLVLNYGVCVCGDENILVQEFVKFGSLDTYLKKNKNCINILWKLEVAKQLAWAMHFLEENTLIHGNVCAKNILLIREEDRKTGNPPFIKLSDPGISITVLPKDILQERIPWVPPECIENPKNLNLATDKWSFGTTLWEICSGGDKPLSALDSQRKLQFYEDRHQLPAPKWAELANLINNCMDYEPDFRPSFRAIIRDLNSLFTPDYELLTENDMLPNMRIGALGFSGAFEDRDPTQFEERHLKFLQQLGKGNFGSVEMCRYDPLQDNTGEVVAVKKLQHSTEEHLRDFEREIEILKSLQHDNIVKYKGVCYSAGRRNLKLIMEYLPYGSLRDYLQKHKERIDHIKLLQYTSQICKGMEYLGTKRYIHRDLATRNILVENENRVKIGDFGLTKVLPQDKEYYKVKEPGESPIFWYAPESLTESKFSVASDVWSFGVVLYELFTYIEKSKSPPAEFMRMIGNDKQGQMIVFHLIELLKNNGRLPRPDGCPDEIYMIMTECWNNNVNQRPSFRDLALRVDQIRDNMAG

Human Tyk2 kinase domain = target: T3, Human Tyk2 kinase domain (Homo sapiens, UniProt P29597); test: Tyk2 Inhibition Assay (Omnia kinase fluorescence peptide substrate); details: averaged IC50 ranges; 10 μM (Km app) or 1 mM ATP, 2 nM Tyk2
T3 construct: comprising amino acids 886 to 1187; His10 (10 histidine residues) (C, cleaved yes); made in house
T3 sequence (P29597 886-1187): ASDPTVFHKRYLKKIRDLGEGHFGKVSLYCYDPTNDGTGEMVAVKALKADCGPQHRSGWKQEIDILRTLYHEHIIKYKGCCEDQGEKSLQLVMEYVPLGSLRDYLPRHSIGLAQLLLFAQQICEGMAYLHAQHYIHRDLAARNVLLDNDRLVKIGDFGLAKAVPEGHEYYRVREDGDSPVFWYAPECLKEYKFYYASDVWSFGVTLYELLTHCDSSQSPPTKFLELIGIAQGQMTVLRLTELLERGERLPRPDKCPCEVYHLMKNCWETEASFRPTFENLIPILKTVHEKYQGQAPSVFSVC
Procedure, shortened: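 Phosphorylation of 8 μM Omnia Y12 peptide followed kinetically by Sox fluorescence, ex 360/em 485 nm, every 50 s for 45 min. Enzyme: 2 nM Tyk2 kinase domain (aa 886–1187, His tag removed); ATP at 10 μM (Km app) or 1 mM; buffer HEPES pH 7.4 with MgCl2, Triton X-100, DTT. 10-point curves up to 10 μM, IC50 from 4-parameter logistic fit.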

JAK1 = target: T4, JAK1 (Homo sapiens, UniProt P23458); test: JAK1 Inhibition Assay (Omnia kinase fluorescence peptide substrate); details: averaged IC50 ranges; 40 μM (Km app) or 1 mM ATP, 15 nM JAK1
T4 construct: purchased Invitrogen Corporation, Carlsbad, Calif; IVGN PV4775
T4 sequence (P23458 whole entry): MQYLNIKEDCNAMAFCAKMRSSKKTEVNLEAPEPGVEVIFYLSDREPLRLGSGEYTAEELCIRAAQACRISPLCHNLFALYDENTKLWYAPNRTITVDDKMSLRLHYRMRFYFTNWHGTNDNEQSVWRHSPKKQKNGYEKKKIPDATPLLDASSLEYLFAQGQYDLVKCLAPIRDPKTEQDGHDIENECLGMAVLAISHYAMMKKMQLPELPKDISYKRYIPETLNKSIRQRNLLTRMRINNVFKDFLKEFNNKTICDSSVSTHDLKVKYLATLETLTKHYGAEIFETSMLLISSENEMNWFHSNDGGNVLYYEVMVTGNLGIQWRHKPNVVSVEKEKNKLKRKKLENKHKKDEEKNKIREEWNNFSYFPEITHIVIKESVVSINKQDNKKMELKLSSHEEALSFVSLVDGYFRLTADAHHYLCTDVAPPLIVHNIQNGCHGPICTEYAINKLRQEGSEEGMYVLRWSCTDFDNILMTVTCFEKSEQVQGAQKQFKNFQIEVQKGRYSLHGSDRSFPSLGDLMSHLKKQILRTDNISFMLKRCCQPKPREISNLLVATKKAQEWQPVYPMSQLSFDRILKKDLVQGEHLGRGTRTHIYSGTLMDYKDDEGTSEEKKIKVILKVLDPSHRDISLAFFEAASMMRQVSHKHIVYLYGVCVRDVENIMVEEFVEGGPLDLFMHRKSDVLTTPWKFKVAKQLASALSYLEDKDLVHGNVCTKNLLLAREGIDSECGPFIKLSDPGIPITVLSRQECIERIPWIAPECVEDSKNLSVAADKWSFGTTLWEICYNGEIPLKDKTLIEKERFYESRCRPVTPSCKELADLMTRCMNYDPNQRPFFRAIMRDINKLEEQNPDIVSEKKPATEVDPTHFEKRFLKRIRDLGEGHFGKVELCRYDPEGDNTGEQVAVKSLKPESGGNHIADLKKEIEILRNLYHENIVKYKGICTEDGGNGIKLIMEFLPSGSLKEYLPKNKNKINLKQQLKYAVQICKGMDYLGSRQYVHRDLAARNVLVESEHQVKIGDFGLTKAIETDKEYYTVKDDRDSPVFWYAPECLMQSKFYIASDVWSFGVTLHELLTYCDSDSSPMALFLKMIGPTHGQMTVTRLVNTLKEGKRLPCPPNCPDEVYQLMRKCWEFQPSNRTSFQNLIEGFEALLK
Procedure, shortened: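 15 nM JAK1, 8 μM Omnia Y12 peptide, 40 μM (Km app) or 1 mM ATP; 25 mM HEPES pH 7.4, 10 mM MgCl2, 2% DMSO. Fluorescence (ex 360/em 485 nm) read every 50 s over 45 min. IC50 by 4-parameter fit of percent of control, top dose 10 μM.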

Compound | IC50 (JAK3) [nM] | IC50 (JAK2) [nM] | IC50 (Human Tyk2 kinase domain) [nM] | IC50 (JAK1) [nM]
C=CCC(CC1CC1)n1cc(-c2nc(-c3cnn(C)c3)cc3nccn23)cn1 (stereo not drawn) [Example 10, 5-(1-(1-Cyclopropylpent-4-en-2-yl)-1H-pyrazol-4-yl)-7-(1-methyl-1H-pyrazol-4-yl)imidazo[1,2-c]pyrimidine] | 100 to 1000 | 10 to 100 | < 10 | 100 to 1000
Cn1cc(-c2cc3nccn3c(-c3cnn(C4(CCF)CN(S(=O)(=O)C(F)(F)F)C4)c3)n2)cn1 [Example 18, 5-(1-(3-(2-Fluoroethyl)-1-(trifluoromethylsulfonyl)azetidin-3-yl)-1H-pyrazol-4-yl)-7-(1-methyl-1H-pyrazol-4-yl)imidazo[1,2-c]pyrimidine] | 100 to 1000 | 10 to 100 | < 10 | 100 to 1000
Cn1cc(-c2cc3nccn3c(-c3cnn(C(CCO)c4ccc(F)cc4)c3)n2)cn1 (stereo not drawn) [Example 81, 3-(4-fluorophenyl)-3-(4-(7-(1-methyl-1H-pyrazol-4-yl)imidazo[1,2-c]pyrimidin-5-yl)-1H-pyrazol-1-yl)propan-1-ol] | 100 to 1000 | 100 to 1000 | 100 to 1000 | 100 to 1000
CC#CCCn1cc(-c2nc(-c3cnn(C)c3)cc3nccn23)cn1 [Example 7, 7-(1-Methyl-1H-pyrazol-4-yl)-5-(1-(pent-3-yn-1-yl)-1H-pyrazol-4-yl)imidazo[1,2-c]pyrimidine] | > 1000 | > 1000 | 100 to 1000 | > 1000
Cn1cc(-c2cc3nccn3c(-c3cnn([C@H](CCF)C4CCC4)c3)n2)cn1 [Example 36, (R)-5-(1-(1-cyclobutyl-3-fluoropropyl)-1H-pyrazol-4-yl)-7-(1-methyl-1H-pyrazol-4-yl)imidazo[1,2-c]pyrimidine] | 100 to 1000 | 10 to 100 | < 10 | 100 to 1000
Cn1cc(-c2cc3nccn3c(-c3cnn(C4(CCF)CN(S(=O)(=O)C(F)F)C4)c3)n2)cn1 [Example 51] | 10 to 100 | 10 to 100 | < 10 | 10 to 100
Cn1cc(-c2cc3nccn3c(-c3cnn(C(CCO)C4CCCC4)c3)n2)cn1 (stereo not drawn) [Example 72, 3-cyclopentyl-3-(4-(7-(1-methyl-1H-pyrazol-4-yl)imidazo[1,2-c]pyrimidin-5-yl)-1H-pyrazol-1-yl)propan-1-ol] | > 1000 | > 1000 | 100 to 1000 | > 1000
Cn1cc(-c2cc3nccn3c(-c3ccn(C4(CCF)CN(CC#N)C4)c3)n2)cn1 [Example 22, 2-(3-(2-fluoroethyl)-3-(3-(7-(1-methyl-1H-pyrazol-4-yl)imidazo[1,2-c]pyrimidin-5-yl)-1H-pyrrol-1-yl)azetidin-1-yl)acetonitrile] | 100 to 1000 | 100 to 1000 | 10 to 100 | 100 to 1000
Cn1cc(-c2cc3nccn3c(-c3cnn(C(CCO)C4CCC4)c3)n2)cn1 (stereo not drawn) [Example 68, 3-cyclobutyl-3-(4-(7-(1-methyl-1H-pyrazol-4-yl)imidazo[1,2-c]pyrimidin-5-yl)-1H-pyrazol-1-yl)propan-1-ol] | > 1000 | > 1000 | 100 to 1000 | > 1000
COCCC(C1CCCC1)n1cc(-c2nc(-c3cnn(C)c3)cc3nccn23)cn1 (stereo not drawn) [Example 70, 5-(1-(1-cyclopentyl-3-methoxypropyl)-1H-pyrazol-4-yl)-7-(1-methyl-1H-pyrazol-4-yl)imidazo[1,2-c]pyrimidine] | > 1000 | > 1000 | 100 to 1000 | > 1000
Cn1cc(-c2cc3nccn3c(-c3cnn(C(CCC(F)F)C4CC4)c3)n2)cn1 (stereo not drawn) [Example 47, 5-(1-(1-cyclopropyl-4,4-difluorobutyl)-1H-pyrazol-4-yl)-7-(1-methyl-1H-pyrazol-4-yl)imidazo[1,2-c]pyrimidine] | 100 to 1000 | 10 to 100 | 10 to 100 | 100 to 1000
Cn1cc(-c2cc3nccn3c(-c3cnn(C(CCF)C4CC4)c3)n2)cn1 (stereo not drawn) [Example 17, 5-(1-(1-Cyclopropyl-3-fluoropropyl)-1H-pyrazol-4-yl)-7-(1-methyl-1H-pyrazol-4-yl)imidazo[1,2-c]pyrimidine] | 100 to 1000 | 10 to 100 | < 10 | 100 to 1000
CC=C[C@@H](C1CC1)n1cc(-c2nc(-c3cnn(C)c3)cc3nccn23)cn1 [Example 39, (R)-5-(1-(1-cyclopropylbut-2-en-1-yl)-1H-pyrazol-4-yl)-7-(1-methyl-1H-pyrazol-4-yl)imidazo[1,2-c]pyrimidine] | 100 to 1000 | 100 to 1000 | 10 to 100 | 100 to 1000
CC#CCC(C1CC1)n1cc(-c2nc(-c3cnn(C)c3)cc3nccn23)cn1 (stereo not drawn) [Example 45, 5-(1-(1-cyclopropylpent-3-yn-1-yl)-1H-pyrazol-4-yl)-7-(1-methyl-1H-pyrazol-4-yl)imidazo[1,2-c]pyrimidine] | > 1000 | 100 to 1000 | 100 to 1000 | > 1000
CC(C1CC1)n1cc(-c2nc(-c3cnn(C)c3)cc3nccn23)cn1 (stereo not drawn) [Example 14, 5-(1-(1-Cyclopropylethyl)-1H-pyrazol-4-yl)-7-(1-methyl-1H-pyrazol-4-yl)imidazo[1,2-c]pyrimidine] | > 1000 | 100 to 1000 | 10 to 100 | > 1000
CCCC1(n2cc(-c3nc(-c4cnn(C)c4)cc4nccn34)cn2)CN(S(=O)(=O)C(F)(F)F)C1 [Example 88, 7-(1-methyl-1H-pyrazol-4-yl)-5-(1-(3-propyl-1-((trifluoromethyl)sulfonyl)azetidin-3-yl)-1H-pyrazol-4-yl)imidazo[1,2-c]pyrimidine] | 100 to 1000 | 10 to 100 | 10 to 100 | 100 to 1000
CC[C@H](CCF)n1cc(-c2nc(-c3cnn(C)c3)cc3nccn23)cn1 [Example 42, (R)-5-(1-(1-fluoropentan-3-yl)-1H-pyrazol-4-yl)-7-(1-methyl-1H-pyrazol-4-yl)imidazo[1,2-c]pyrimidine] | 100 to 1000 | 10 to 100 | < 10 | 100 to 1000
O=S(=O)(N1CC(CCF)(n2cc(-c3nc(-c4cnn(C5CCOCC5)c4)cc4nccn34)cn2)C1)C(F)(F)F [Example 60, 5-(1-(3-(2-fluoroethyl)-1-((trifluoromethyl)sulfonyl)azetidin-3-yl)-1H-pyrazol-4-yl)-7-(1-(tetrahydro-2H-pyran-4-yl)-1H-pyrazol-4-yl)imidazo[1,2-c]pyrimidine] | 100 to 1000 | < 10 | < 10 | 10 to 100
